Among the test systems are MDA-MB-231 breast; SK-MEL-5 melanoma; NCI-H460 lung; UO-31 renal; UACC-62 melanoma; SF-268 CNS; NCI/ADR-RES ovarian; RPMI-8226 leukemia; SNB-19 CNS; T-47D breast; BT-549 breast; MDA-MB-435; HT29 colon; OVCAR-5 ovarian; SF-539 CNS; SK-OV-3 ovarian.
Test in all cases: DTP human tumour cell line panel, 48 h

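Results reflect a 48-hour exposure of cells in 96-well plates to compound at five concentrations. The concentration for full growth arrest is given as TGI.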 Some results are limits rather than exact numbers.

What is called TGI is the concentration at which net growth stops. A higher TGI goes with lower sensitivity of the cells.

With `Cc1cccc(-n2c(C)nc3ccc(NC4OC(CO)C(O)C(O)C4O)cc3c2=O)c1` (stereo not drawn), the TGI in the experiment on MDA-MB-231 breast, in the experiment on SK-MEL-5 melanoma, with NCI-H460 lung, with UO-31 renal, in the experiment with UACC-62 melanoma and in the experiment with SF-268 CNS was above 100 µM in each case. Moreover, the TGI in the experiment on NCI/ADR-RES ovarian, with RPMI-8226 leukemia, in the experiment on SNB-19 CNS, in the experiment with T-47D breast, in the experiment on BT-549 breast and with MDA-MB-435 was above 100 µM throughout. For the same compound, the TGI in the experiment with HT29 colon and with OVCAR-5 ovarian was above 100 µM throughout.
Turning to `C=C(C)C#CC(O)(C(=O)OC1CCN(C)CC1)C(C)C` (stereo not drawn), the TGI in the experiment on MDA-MB-231 breast, with SK-MEL-5 melanoma, in the experiment with UO-31 renal, with SF-539 CNS, with UACC-62 melanoma and in the experiment on SF-268 CNS was above 100 µM throughout. In addition, the TGI in the experiment on NCI/ADR-RES ovarian is 85.6 µM; in the experiment with RPMI-8226 leukemia, above 100 µM; with SK-OV-3 ovarian, above 100 µM; in the experiment with SNB-19 CNS, above 100 µM; in the experiment with T-47D breast, above 100 µM; with MDA-MB-435, above 100 µM. In addition, the TGI with HT29 colon and with OVCAR-5 ovarian was above 100 µM in each case.
Turning to `COc1cccc(/C(CC(O)(C(F)(F)F)C(F)(F)F)=N\N(C)C)c1`, the TGI in the experiment with MDA-MB-231 breast, in the experiment on SK-MEL-5 melanoma, in the experiment on NCI-H460 lung, with UO-31 renal, in the experiment with SF-539 CNS and in the experiment on UACC-62 melanoma was above 100 µM throughout. The TGI in the experiment with SF-268 CNS, in the experiment with NCI/ADR-RES ovarian, with RPMI-8226 leukemia, with SK-OV-3 ovarian, in the experiment with SNB-19 CNS and in the experiment with T-47D breast was above 100 µM each time. In addition, the TGI in the experiment on MDA-MB-435, in the experiment on HT29 colon and in the experiment on OVCAR-5 ovarian was above 100 µM each time.
For the compound `Oc1[nH]c2ccccc2c1N=NC(=S)N1CCCCC1`, the TGI in the experiment on MDA-MB-231 breast turned out to be 2.79 µM; in the experiment on SK-MEL-5 melanoma, 1.03 µM; in the experiment with NCI-H460 lung it was 2.29 µM; in the experiment on UO-31 renal, 3.23 µM; in the experiment with SF-539 CNS it was 1.49 µM; in the experiment on UACC-62 melanoma it was 4.01 µM. The concentration for total growth inhibition (TGI) in the experiment on SF-268 CNS is 14.3 µM; with NCI/ADR-RES ovarian, 0.635 µM; with RPMI-8226 leukemia it was 2.43 µM; in the experiment on SK-OV-3 ovarian, 7.62 µM; in the experiment on SNB-19 CNS, 12.5 µM; in the experiment on T-47D breast it was 20 µM. Moreover, the TGI with MDA-MB-435 is 4.58 µM; in the experiment on HT29 colon, 10.8 µM; in the experiment on OVCAR-5 ovarian, 21.1 µM.
As for `CC1CC(=O)Nc2cc(Cl)ccc2N1C(=O)C1CC1` (stereo not drawn), the TGI with MDA-MB-231 breast, with SK-MEL-5 melanoma, with NCI-H460 lung, in the experiment with UO-31 renal, in the experiment with SF-539 CNS and in the experiment on SF-268 CNS was above 100 µM each time. In addition, the TGI in the experiment with RPMI-8226 leukemia, in the experiment on SK-OV-3 ovarian, in the experiment on SNB-19 CNS, with T-47D breast, with BT-549 breast and in the experiment on MDA-MB-435 was above 100 µM throughout. The TGI in the experiment on HT29 colon and with OVCAR-5 ovarian was above 100 µM throughout.
As for `CCCCC1Cc2ccccc2-c2n1c1ccccc1[n+]2C` (stereo not drawn), the TGI with MDA-MB-231 breast was above 100 µM; in the experiment on SK-MEL-5 melanoma it was 18 µM; in the experiment with NCI-H460 lung it was above 100 µM; with UO-31 renal, above 100 µM; in the experiment on SF-539 CNS, above 100 µM; in the experiment with SF-268 CNS, above 100 µM. Moreover, the TGI with NCI/ADR-RES ovarian was above 100 µM; in the experiment with RPMI-8226 leukemia, 14 µM; in the experiment on SK-OV-3 ovarian, above 100 µM; in the experiment with T-47D breast, 7.3 µM; in the experiment with MDA-MB-435, above 100 µM; in the experiment with HT29 colon, 57.8 µM. In the experiment on OVCAR-5 ovarian, this compound came in with a TGI above 100 µM.
As for `C=C[C@@H](OCOCC[Si](C)(C)C)[C@@H](CC)OC(CCCOC(=O)C(C)(C)C)OC` (stereo partly drawn), the TGI in the experiment on MDA-MB-231 breast was above 100 µM; in the experiment on SK-MEL-5 melanoma, above 100 µM; in the experiment on NCI-H460 lung, above 100 µM; in the experiment on UO-31 renal it was above 100 µM; in the experiment with UACC-62 melanoma it was 81.3 µM; in the experiment on SF-268 CNS, above 100 µM. Besides, the TGI in the experiment on NCI/ADR-RES ovarian was above 100 µM; in the experiment on RPMI-8226 leukemia, above 100 µM; with SK-OV-3 ovarian, above 100 µM; in the experiment on SNB-19 CNS, 32.3 µM; in the experiment with T-47D breast it was 56.5 µM; with MDA-MB-435 it was above 100 µM. The TGI with HT29 colon is above 100 µM; in the experiment on OVCAR-5 ovarian it was 44.4 µM.
Consider `O=c1[nH]c(=O)n(C2CC(O)C(CO)O2)cc1NN=NCCc1ccccc1` (stereo not drawn), for which the TGI in the experiment on MDA-MB-231 breast, in the experiment on SK-MEL-5 melanoma, in the experiment on NCI-H460 lung, in the experiment with UO-31 renal, with UACC-62 melanoma and in the experiment on SF-268 CNS was above 100 µM each time. For the same compound, the TGI with NCI/ADR-RES ovarian, with RPMI-8226 leukemia, with SK-OV-3 ovarian, with SNB-19 CNS, in the experiment on T-47D breast and in the experiment with MDA-MB-435 was above 100 µM each time. The TGI in the experiment with HT29 colon and in the experiment on OVCAR-5 ovarian was above 100 µM throughout.
Take `COc1ccc(-c2cc(-c3ccc(Cl)cc3)n(C3OC(CO)C(O)C(O)C3O)c(=S)c2C#N)cc1` (stereo not drawn): the TGI with MDA-MB-231 breast, in the experiment with SK-MEL-5 melanoma, in the experiment with NCI-H460 lung, in the experiment with UO-31 renal, in the experiment with SF-539 CNS and with UACC-62 melanoma was above 100 µM in each case. In addition, the TGI with SF-268 CNS, in the experiment on RPMI-8226 leukemia, in the experiment with SK-OV-3 ovarian, with SNB-19 CNS, in the experiment with T-47D breast and in the experiment with BT-549 breast was above 100 µM each time. The results for the TGI in the experiment with MDA-MB-435, with HT29 colon and in the experiment on OVCAR-5 ovarian were above 100 µM, above 100 µM and 82.2 µM, respectively.

Values taken from PubChem BioAssay (NCI).
